Entries after “also recorded” stand apart in the source; their conditions may differ.
Assays:
Assay type in all cases: cell-based
[1] = tested on: INS-1 insulin-secreting β-cells; assay: Exendin + glucose-stimulated insulin secretion in INS-1 cells; conditions: 8.3 mmol·L^−1 glucose + 0.001 μmol·L^−1 exendin; for maximal response, stimulation as compared to exendin alone: 20
Procedure: (§1) The insulin-secreting cell line INS-1 (a gift from Professor C. B. Wollheim) was cultured in RPMI-1640, supplemented with 10% fetal calf serum (FCS), 100 U·mL^−1 penicillin, 100 μg·mL^−1 streptomycin, 2 mmol·L^−1 L-glutamine, 10 mmol·L^−1 HEPES, 1 mmol·L^−1 sodium pyruvate, and […] 2-mercaptoethanol, as previously described by Youl et al. (2010). Cells were seeded in 24-well plates (4×10^5 cells per well) and were used for experiments after 5 days of culture.
(§2) Before the treatment, RPMI medium was removed and the cells were washed twice with HEPES-balanced Krebs-Ringer bicarbonate buffer (KRB) containing (in mmol·L^−1): 123 NaCl, 5.4 KCl, 1.3 KH2PO4, 2.7 MgSO4, 2.9 CaCl2, 5 NaHCO3 and 20 HEPES, pH 7.5, with 2 g·L^−1 bovine serum albumin (KRB/BSA). Cells were incubated for 1 h (5% CO2, 37° C.) in KRB medium containing 8.3 mmol·L^−1 glucose (glucose-stimulated secretion) in the presence or absence of the compounds tested. At the end of the 1 h incubation period, the medium was sampled and stored at −20° C. until the insulin assay. Insulin concentration in cell supernatants was determined using the homogeneous time resolved fluorescence technology (HTRF), according to the manufacturer's instructions (HTRF insulin assay kit, Cisbio International, Bagnols-sur-Ceze, France). Briefly, two anti-insulin antibodies were used; one labelled with Eu^3+-Cryptate and one labelled with XL665 recognizing distinct epitopes. When these two fluorophores bind to insulin molecules, the two antibodies come into close proximity, allowing fluorescence resonance energy transfer (FRET) to occur between the Eu^3+-Cryptate and the XL665. This FRET increases proportionally with the insulin concentrations. All the experiments were performed at least in quadruplicate.
Material and methods were the same as described in example 1. For the determination of insulin secretion, cells were incubated for 1 h (5% CO2, 37° C.) in KRB medium containing 8.3 mmol·L^−1 glucose (glucose-stimulated condition) and exendin (0.001 μmol·L^−1) in the presence or absence of the compounds tested. Data were expressed as percent of exendin (0.001 μmol·L^−1)+glucose (8.3 mmol·L^−1)-stimulated insulin secretion (“control 100%”) (FIGS. 4A-D).

[2] = tested on: INS-1 insulin-secreting β-cells; assay: Glibenclamide-stimulated insulin secretion in INS-1 cells; conditions: for stimulation of insulin secretion in the presence of glibenclamide: 0 to 20 μmol·L^−1
Procedure: as §1, §2
Material and methods were the same as described in example 1. For the determination of insulin secretion, cells were incubated for 1 h (5% CO2, 37° C.) in KRB medium containing 1.4 mmol·L^−1 glucose (low-glucose condition) and 0.01 μmol·L^−1 glibenclamide (glibenclamide-stimulated secretion), in the presence or absence of urolithins. At the end of the 1 h incubation period, the medium was sampled and stored at −20° C. until the insulin assay. Insulin concentration in cell supernatants was determined as described in Example 1.

[3] = tested on: INS-1 insulin-secreting β-cells; assay: INS-1 cell viability (MTT) in the presence of oxidative stress (H2O2); conditions: 20 μmol·L^−1 urolithin; 8.3 mmol·L^−1 glucose + H2O2
Procedure: For protection experiments, INS-1 cells were pre-incubated with the indicated concentrations of urolithins for one hour (5% CO2, 37° C.) in RPMI medium. After two washes in HEPES-balanced Krebs-Ringer bicarbonate buffer (123 mmol·L^−1 NaCl, 5.4 mmol·L^−1 KCl, 1.3 mmol·L^−1 KH2PO4, 2.7 mmol·L^−1 MgSO4, 2.9 mmol·L^−1 CaCl2, 5 mmol·L^−1 NaHCO3 and 20 mmol·L^−1 HEPES, pH 7.5) containing 2 g·L^−1 bovine serum albumin (KRB/BSA), INS-1 cells were incubated for one hour (5% CO2, 37° C.) in KRB/BSA containing urolithins at the indicated concentrations in the presence of 1.4 mmol·L^−1 glucose (basal condition) or 8.3 mmol·L^−1 glucose (stimulant condition). When used, H2O2 (50 gmol·L^−1) was added at the beginning of the one-hour incubation period. Control experiments were performed in the basal condition, in the absence of urolithins during the pre-incubation and incubation periods.
Cell viability was determined using the 3-(4,5-Dimethylthiazol-2-yl)-2,5-diphenyltetrazolium bromide (MTT) assay. At the end of the one-hour incubation period, cells were washed with KRB/BSA and KRB/BSA containing 5 mg/ml MTT was added to each well. Plates were then incubated for 3 h in the dark in a humidified atmosphere (5% CO2, 37° C.). Cells were washed with phosphate buffered saline (PBS) and precipitates were dissolved in 50 μl dimethyl sulfoxide (DMSO). Absorbance of the reduced intracellular formazan product was read at 492 nm on a microtiter plate reader (Tecan, Lyon, France). Experiments were performed in quadruplicate.

[4] = 1.4 mmol·L^−1 glucose + 0.01 μmol·L^−1 glibenclamide

EC50 [2, 4] [µM]	Structure (SMILES)	raise of insulin secretion in the presence of exendin and glucose [1]	stimulation of insulin secretion in the presence of glibenclamide [2]	concentration at which maximal effect was obtained [2, 4] [µmol/L]	prevention of viability impairment induced by H2O2 (MTT) [3]	maximal response, stimulation as compared to glibenclamide alone [2, 4]	maximal response, stimulation as compared to exendin alone [1]	stimulation of glibenclamide-induced response ([2]; urolithin 5 μmol·L^−1, 1.4 mmol·L^−1 glucose + 0.01 μmol·L^−1 glibenclamide)
	O=c1oc2cc(O)ccc2c2ccc(O)cc12 [Urolithin A, urolithin A]	did not induce a significant raise of insulin secretion; also recorded: did not amplify exendin-stimulated insulin secretion	concentration-dependently stimulated insulin secretion	5	no effect			
	O=c1oc2cc(O)ccc2c2ccccc12 [Urolithin B, urolithin B]	did not induce a significant raise of insulin secretion; also recorded: did not amplify exendin-stimulated insulin secretion	concentration-dependently stimulated insulin secretion		partially active	130%		
~5	O=c1oc2cc(O)ccc2c2cc(O)c(O)cc12 [Urolithin C, urolithin C]	induced a significant concentration-dependent stimulation of insulin secretion	concentration-dependently stimulated insulin secretion		totally prevent viability impairment	about 200%	about 185%	about 150%
	O=c1oc2c(O)c(O)ccc2c2cc(O)c(O)cc12 [Urolithin D, urolithin D]	induced a significant concentration-dependent stimulation of insulin secretion	concentration-dependently stimulated insulin secretion		totally prevent viability impairment		140%	
